Measured values: ChEMBL document CHEMBL1128771 (Bioorg Med Chem Lett, 1995)

Assays:
[1] = Ability to inhibit proliferation in human lymphocytes by mixed lymphocyte reaction (MLR); format: functional, cell-based
[2] = biological target: Dihydroorotate dehydrogenase (quinone), mitochondrial (Homo sapiens, UniProt Q02127)
Sequence of Dihydroorotate dehydrogenase (quinone), mitochondrial (Q02127 whole entry): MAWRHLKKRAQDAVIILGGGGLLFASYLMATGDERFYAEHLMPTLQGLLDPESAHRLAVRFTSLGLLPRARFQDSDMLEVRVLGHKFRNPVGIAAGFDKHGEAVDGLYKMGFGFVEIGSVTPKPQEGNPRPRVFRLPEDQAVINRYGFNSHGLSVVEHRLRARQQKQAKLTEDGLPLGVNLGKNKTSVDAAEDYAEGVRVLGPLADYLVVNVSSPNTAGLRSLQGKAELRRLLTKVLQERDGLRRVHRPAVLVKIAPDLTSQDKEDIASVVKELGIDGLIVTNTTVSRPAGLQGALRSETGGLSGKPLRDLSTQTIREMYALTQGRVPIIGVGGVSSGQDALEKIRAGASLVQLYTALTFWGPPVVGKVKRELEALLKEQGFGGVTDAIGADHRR
Description: Inhibition measurement of orotate formation from radiolabeled dihydroorotate, using partially purified DHODase isolated from human liver.

SMILES | IC50 ([1]; Homo sapiens) | Ki [2] | IC50 [1]
Cc1c(-c2ccc(-n3ccnc3)cc2)nc2ccc(F)cc2c1C(=O)O | > 500 nM | > 500 nM | 
CC(=O)OCc1c(C)c(-c2ccc(-c3ccccc3)cc2)nc2ccc(F)cc12 | > 500 nM | > 500 nM | 
Cc1c(-c2ccc(-c3ccccc3)s2)nc2ccc(F)cc2c1C(=O)O | > 500 nM | 390 nM | 
Cn1cnc2c(C(=O)O)cc(-c3ccc(-c4ccccc4)cc3)nc21 | > 500 nM | > 500 nM | 
Cc1c(-c2ccc(-c3ccccc3F)cc2)nc2ncccc2c1C(=O)O | > 500 nM | 210 nM | 
O=C(O)c1c2c(nc3ccc(F)cc13)-c1ccc(-c3ccccc3)cc1CC2 | 14 nM | 17 nM | 
Cc1c(-c2ccc3ccccc3c2)nc2ccc(F)cc2c1C(=O)O | > 500 nM | 300 nM | 
Cc1c(-c2ccc(-c3ccccc3F)cc2)nc2cccnc2c1C(=O)O | > 500 nM | 500 nM | 
Cc1c(-c2cccc(Oc3ccccc3)c2)nc2ccc(F)cc2c1C(=O)O | > 500 nM | 63 nM | 
Cc1ccc2nc(-c3ccc(-c4ccccc4)cc3)c(C)c(C(=O)O)c2c1 | 380 nM | 10 nM | 
Cc1c(-c2ccc(-c3ccccc3)cc2)nc2ccc(F)cc2c1C(N)=O | > 500 nM | > 500 nM | 
CCc1c(-c2ccc(-c3ccccc3)cc2)nc2ccc(F)cc2c1C(=O)O | 210 nM | 30 nM | 
CCCCCCc1ccc(-c2nc3ccc(F)cc3c(C(=O)O)c2C)cc1 | > 500 nM | 60 nM | 
Cc1c(-c2ccc(-c3ccc(Br)cc3)cc2)nc2ccc(F)cc2c1C(=O)O | > 500 nM | 38 nM | 
Cc1ccc(-c2ccc(-c3nc4ccc(F)cc4c(C(=O)O)c3C)cc2)cc1 | 150 nM | 24 nM | 
COC(=O)c1c(C)c(-c2ccc(-c3ccccc3)cc2)nc2ccc(F)cc12 | > 500 nM | 400 nM | 
Cc1c(-c2ccc(-c3ccc(C(F)(F)F)cc3)cc2)nc2ccc(F)cc2c1C(=O)O | > 500 nM | 230 nM | 
Cc1c(-c2ccc(Oc3ccccc3)cc2)nc2ccc(F)cc2c1C(=O)O | 500 nM | 29 nM | 
CC(=O)Nc1ccc2nc(-c3ccc(-c4ccccc4)cc3)c(C)c(C(=O)O)c2c1 | > 500 nM | > 500 nM | 
Cc1c(-c2ccc(-c3ccc(Cl)cc3)cc2)nc2ccc(F)cc2c1C(=O)O | > 500 nM | 140 nM | 
O=C(O)c1cc(-c2ccc(-c3ccccc3)cc2)nc2sccc12 | > 500 nM | 210 nM | 
Cc1c(-c2ccc(-c3ccccc3)cc2)nc2ccc(C(F)(F)F)cc2c1C(=O)O | 7 nM | 8.4 nM | 
O=C(O)c1cc(-c2ccc(-c3ccccc3)cc2)nc2ocnc12 | > 500 nM | > 500 nM | 
Cc1c(-c2ccc(-c3ccccc3)cc2)nc2ccc(F)cc2c1-n1cnnn1 | > 500 nM | > 500 nM | 
Cc1c(-c2ccc(-c3cccc(F)c3)cc2)nc2ccc(F)cc2c1C(=O)O | 20 nM | 50 nM | 
Cc1c(-c2ccc(-c3ccccc3)cc2)nc2ccc(Cl)cc2c1C(=O)O | 35 nM | 20 nM | 
COC(=O)c1ccc2nc(-c3ccc(-c4ccccc4)cc3)c(C)c(C(=O)O)c2c1 | > 500 nM | > 500 nM | 

SMILES | IC50 ([1]; Homo sapiens) | Ki [2] | IC50 [1]
Cc1c(-c2ccc(-c3ccccc3)cc2)nc2ccc(F)cc2c1CO | > 500 nM | > 500 nM | 
Cc1c(-c2ccc(-c3cccnc3)cc2)nc2ccc(F)cc2c1C(=O)O | > 500 nM | 200 nM | 
O=C(O)c1cc(-c2ccc(-c3ccccc3)cc2)nc2ccc(F)cc12 | 150 nM | 10 nM | 
Cc1c(CCCCc2ccccc2)nc2ccc(F)cc2c1C(=O)O | > 500 nM | > 500 nM | 
Cc1c(-c2ccc(-c3ccc(F)cc3)cc2)nc2ccc(F)cc2c1C(=O)O | 260 nM | 210 nM | 
Cc1c(-c2ccc(-c3ccccc3)cc2)nc2ccc(F)cc2c1O | > 500 nM | > 500 nM | 
Cc1c(-c2ccc(-c3ccccc3F)cc2)nc2ccncc2c1C(=O)O | > 500 nM | 420 nM | 
Cc1c(-c2ccc(C3CCCCC3)cc2)nc2ccc(F)cc2c1C(=O)O | 25 nM | 28 nM | 
Cc1c(-c2cccc(-c3ccccc3)c2)nc2ccc(F)cc2c1C(=O)O | > 500 nM | > 500 nM | 
Cc1c(-c2ccc(-c3ccccc3)cc2)nc2ccccc2c1C(=O)O |  |  | 180 nM
CSc1c(-c2ccc(-c3ccccc3)cc2)nc2ccc(F)cc2c1C(=O)O | 18 nM | 13 nM | 
Cc1c(-c2ccc(-c3ccccc3F)cc2)nc2cnccc2c1C(=O)O | 290 nM | 48 nM | 
COc1c(-c2ccc(-c3ccccc3)cc2)nc2ccc(F)cc2c1C(=O)O | 250 nM | 13 nM | 
Cc1c(-c2ccc(-c3ccccc3)cc2)nc2c(Cl)cccc2c1C(=O)O | > 500 nM | 150 nM | 
Cc1c(-c2ccc(-c3ccccc3)cc2)nc2cc(Cl)ccc2c1C(=O)O | > 500 nM | 220 nM | 
Cc1c(-c2ccc(-c3ccccc3)cc2)nc2cccc(Cl)c2c1C(=O)O | 150 nM | 25 nM | 
Cc1c(-c2ccc(C(C)(C)C)cc2)nc2ccc(F)cc2c1C(=O)O | 400 nM | 40 nM | 
O=C(O)c1c(O)c(-c2ccc(-c3ccccc3)cc2)nc2ccc(F)cc12 | > 500 nM |  | 
Cc1c(-c2ccc(-c3cccs3)cc2)nc2ccc(F)cc2c1C(=O)O | 350 nM | 56 nM | 
Cc1c(-c2ccc(-c3ccccc3)cc2)nc2ccc(O)cc2c1C(=O)O | > 500 nM | > 500 nM | 
CSc1ccc2nc(-c3ccc(-c4ccccc4)cc3)c(C)c(C(=O)O)c2c1 | > 500 nM | 270 nM | 
Cc1c(-c2ccccc2)nc2ccc(F)cc2c1C(=O)O | > 500 nM | > 500 nM | 
Cc1c(-c2cccc3ccccc23)nc2ccc(F)cc2c1C(=O)O | > 500 nM | > 500 nM | 
Cc1c(-c2ccc(-c3ccc(O)cc3F)cc2)nc2ccc(F)cc2c1C(=O)O | 300 nM | 11 nM | 
Cc1c(-c2ccc(-c3ccccc3F)cc2)nc2nc[nH]c2c1C(=O)O | > 500 nM | > 500 nM | 
Cc1c(-c2ccc(-c3ccccc3F)cc2)nc2ccc(F)cc2c1C(=O)O [BREQUINAR] |  |  | 15 nM
